These results are taken from patent US7745493B2, “Methods of treating tardive dyskinesia and other movement disorders” (priority 1998, dated 2010).

Holding throughout (type): in vivo, human
Assay [1] relates to person one with long-standing TD. In words: Case Report 2: two-sentence memory task. The settings on record: Case 2; on acamprosate 666 mg three times daily plus memantine. The procedure:
The patient was placed on a treatment regime that included administration of 666 mg of acamprosate, three times daily. In this case, acamprosate was added to the patient's regimen, which continued to include memantine. […] Despite past evidence from formal testing that the patient had impaired short-term memory, they performed normally on a two-sentence memory task, which involved testing the patient's recall ability using two sentences containing 13 separate details. On the two-sentence memory task, within three attempts the patient was able to recall 9 details and, using a multiple choice format, was able to recall a total of 11 details. Recall of 9 details on the third attempt would be normal for a middle-aged adult, let alone one […].

The test system of assay [2] is person two with long-standing TD. Description: CPT with conditions (Vigilance) (Case 1). The settings on record: ON drug. From the text:
(§1) The following tables report on the results of the neuropsychological tests (Drug I is memantine and Drug II is acamprosate): […]

Assay [3] shares this test system. In words: Rey Auditory-Verbal Learning Test 15-items (Case 1). As to conditions: ON drug. The method, then: On acamprosate, the patient was able to sustain concentration for prolonged periods. […] The patient's cognitive improvement was also assessed using formal neuropsychological measures. The patient was tested while on the drug, then taken off of the drug and tested two days later. On the drug, the patient was able to recall 13 of the 15 items after a short delay as well as 13 of the 15 items after a long delay, as measured by the Rey Auditory Verbal Learning Test. This was in comparison to the patient's ability while off the drug to recall only 7 of the 15 items after a short delay as well as 8 of the items after a long delay in tests performed. In addition, the patient was able to recognize all 15 of the items while on acamprosate but while off the drug (and while having been off of memantine for over 2 months) the patient could only recognize 10 of the items. The order of testing would give the advantage of familiarity to the off-drug condition. Nonetheless, the difference in favor of the on-drug condition was substantial.
as §1

For assay [4], the system named is person with simple tic of the neck. Description: Case Report 5: frequency of simple tic of the neck. As to conditions: Case 5. The method, then: A person had simple tic of the neck that involved forceful extension and rotation of the neck to the right. The tic had started in the context of therapy of depression with dextroamphetamine and pramipexole, a dopamine agonist drug. The tic occurred from 20-50 times per hour, with greater frequency when they were tired or under stress.
They were initially treated with 666 mg of acamprosate three times a day. Within 24 hours after the start of acamprosate therapy, the frequency and severity of the tic decreased dramatically, to a rate of less than 5 per hour. The patient often was free of tics completely for 2 to 3 hours after each dose of acamprosate, after which time the tic would very gradually return. The dose was then raised to 666 mg four times a day. On this dose, rates of more than 5 per hour occurred only under unusually stressful circumstances, and there were frequent tic-free periods of 4 hours or more. […] On a second day without acamprosate, the rate of tics was again over 20 per hour.
[…] then added chelated magnesium, at a dosage of 300 mg of elemental magnesium 3 times a day. With magnesium supplementation, the average tic frequency dropped to 6 hour or less. When 666 mg of acamprosate was given three times a day was given together with magnesium 300 mg three times a day, the usual tic-free period after each acamprosate dose increased from approximately 3 hours to approximately 5 hours.

The test system of assay [5] is person two with long-standing TD. Description: California Verbal Learning Test 16-items (Case 1). The settings on record: ON drug.
Source text: as §1

Assay [6] shares this test system. In words: Grip Strength (Case 1). The settings on record: ON drug, higher score better.
Source text: as §1

Assay [7] has the same test system. In words: Rey-Osterrieth Complex Figure (Case 1). The settings on record: ON drug, higher score better.
Source text: as §1

Assay [8] shares this test system. In words: Verbal Fluency (Case 1). The settings on record: ON drug.
Source text: as §1

Setting [9] is: of 15 items, higher score better.

Structures are written as SMILES. Marks after values point to notes of the source that are not given here.

With `CC(=O)NCCCS(=O)(=O)O` [acamprosate, calcium N-acetylhomotaurinate], in assay [1], the “details recalled within three attempts (of 13 details)” value stood at 9 and the “total details recalled using multiple choice format (of 13 details)” value came to 11. The “CPT Correct” value in assay [2] (higher score better) is listed as 100/100. In addition, in assay [2] (lower score better), the “CPT Commission errors” value was determined as 0, the “CPT Omission errors” value is on record as 0 and the “CPT Wrong” value is 3. In assay [3] (higher score better), the “RAVLT List A Trial 1” value is 10, the “RAVLT List A Trial 5” value came out at 14, the “RAVLT List B” value is given as 8 and the “Rey Auditory Verbal Learning Test List A 1-5 total (75 max)” value is 63. Also, in assay [3] (lower score better), the “RAVLT False Positive” value is given as 1, the “RAVLT Intrusions” value amounted to 0 and the “RAVLT Perseverations” value was found to be 5. In assay [3] (setting [9]), the “RAVLT Long-Delay Free Recall” value worked out at 13, the “RAVLT Recognition Hits” value is on record as 15 and the “RAVLT Short-Delay Free Recall” value is 13. Besides, the tic-free periods in assay [4] (666 mg four times a day) is at least 4 h. For the same compound, the tic rate entry in assay [4] (666 mg three times a day) is on record as “less than 5 per hour”. In addition, the “time to decrease of tic frequency and severity” value in assay [4] (after start of therapy) was at most 24 h.
Regarding `CC12CC3CC(C)(C1)CC(N)(C3)C2` [memantine], in assay [5] (higher score better), the “CVLT List A 1-5 total (80 max)” value worked out at 53, the “CVLT List A Trial 1” value was determined as 7, the “CVLT List A Trial 5” value is listed as 13 and the “CVLT List B” value came out at 7. In addition, in assay [5] (higher score better), the “CVLT Long-Delay Cued Recall” value is 15, the “CVLT Long-Delay Free Recall” value worked out at 12, the “CVLT Recognition Hits” value came to 16 and the “CVLT Short-Delay Cued Recall” value was 13. Moreover, the “CVLT Short-Delay Free Recall” value in assay [5] (higher score better) worked out at 10. Besides, in assay [5] (lower score better), the “CVLT False Positives” value is on record as 3, the “CVLT Intrusions” value came out at 6 and the “CVLT Perseverations” value came out at 23. In assay [6], the “Grip Strength DH” value is on record as “DH = 17.7” and the “Grip Strength NDH” value is recorded as “NDH = 21.7”. In assay [7], the “Rey-Osterrieth Complex Figure Copy Organization” value is 5, the “Rey-Osterrieth Complex Figure Copy Presence & Accuracy” value is given as 20, the “Rey-Osterrieth Complex Figure Delayed Retention” value is reported as −11.1 and the “Rey-Osterrieth Complex Figure Immediate Retention” value is listed as −55. In assay [8], the “Verbal Fluency Category (Animals) Per” value is “Per = 0^b” and the “Verbal Fluency Letter (CFL) Per” value is “Per = 2^b”. Besides, in assay [8] (higher score better), the “Verbal Fluency Category (Animals) Total” value is listed as “Total = 25” and the “Verbal Fluency Letter (CFL) Total” value is given as “Total = 70”.
